#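 Step 1: Grow cells in 96-well plates. Step 2: Expose to compound for 48 hours at 5 concentrations. Step 3: Interpolate endpoints linearly; if unreached, use highest concentration. At the GI50, growth is halved.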 Calls of active or inactive are those of the source. Cut-off read from the data, not from the text of the source: active = GI50 up to about 1.1 µM and inactive = higher.
# Experiments:
# Assay in all cases: DTP human tumour cell line panel, 48 h
# OVCAR-8 = test system: OVCAR-8
# OVCAR-3 = test system: OVCAR-3
# Malme-3M = test system: Malme-3M
# HL-60 = test system: HL-60
# IGROV-1 = test system: IGROV-1
# MCF7 = test system: MCF7
# COLO 205 = test system: COLO 205
# SW-620 = test system: SW-620
# DMS-273 = test system: DMS-273
# NCI-H460 = test system: NCI-H460
# UACC-62 = test system: UACC-62
# DMS-114 = test system: DMS-114
# HOP-92 = test system: HOP-92
# MOLT-4 = test system: MOLT-4
# NCI-H226 = test system: NCI-H226
# K562 = test system: K562
# M19-MEL = test system: M19-MEL
# SR = test system: SR
# MDA-N = test system: MDA-N
# MDA-MB-231 = test system: MDA-MB-231
SMILES,GI50 (OVCAR-8),GI50 (OVCAR-3),GI50 (Malme-3M),GI50 (HL-60),GI50 (IGROV-1),GI50 (MCF7),GI50 (COLO 205),GI50 (SW-620),GI50 (DMS-273),GI50 (NCI-H460),GI50 (UACC-62),GI50 (DMS-114),GI50 (HOP-92),GI50 (MOLT-4),GI50 (NCI-H226),GI50 (K562),GI50 (M19-MEL),GI50 (SR),GI50 (MDA-N),GI50 (MDA-MB-231)
CCCCCCCCCCCC1=C(O)C(=O)C=C(O)C1=O [EMBELIN],2.01 µM (inactive),4.71 µM (inactive),5.81 µM (inactive),3.95 µM (inactive),6.76 µM (inactive),7.64 µM (inactive),7.5 µM (inactive),18.3 µM (inactive),4.72 µM (inactive),2.88 µM (inactive),4.11 µM (inactive),5.47 µM (inactive),4.09 µM (inactive),6.35 µM (inactive),5.25 µM (inactive),7.67 µM (inactive),–,–,–,–
C#CC[C@@]12CC(=O)C[C@@H]1CCC1(C2)OCCO1.C#CC[C@]12CC(=O)CC[C@H]1CC(=O)C2,> 100 µM (inactive),> 100 µM (inactive),> 100 µM (inactive),29.1 µM (inactive),> 100 µM (inactive),> 100 µM (inactive),> 100 µM (inactive),> 100 µM (inactive),> 100 µM (inactive),> 100 µM (inactive),95.5 µM (inactive),–,> 100 µM (inactive),34.4 µM (inactive),> 100 µM (inactive),59.7 µM (inactive),> 100 µM (inactive),–,–,–
CC1C[C@]2(C[C@@H](C)C(=O)O2)OC2CC3(C)C4CCC5C(C)(C)OC(=O)CC[C@@]56C[C@@]46CC[C@]3(C)C12 (stereo partly drawn),> 100 µM (inactive),–,> 100 µM (inactive),69.8 µM (inactive),> 100 µM (inactive),–,> 100 µM (inactive),> 100 µM (inactive),> 100 µM (inactive),> 100 µM (inactive),–,> 100 µM (inactive),> 100 µM (inactive),> 100 µM (inactive),> 100 µM (inactive),64.9 µM (inactive),–,> 100 µM (inactive),–,–
Nc1nn(CC(O)CO)c(=O)s1 (stereo not drawn),> 100 µM (inactive),> 100 µM (inactive),> 100 µM (inactive),> 100 µM (inactive),> 100 µM (inactive),–,> 100 µM (inactive),> 100 µM (inactive),> 100 µM (inactive),> 100 µM (inactive),> 100 µM (inactive),> 100 µM (inactive),–,> 100 µM (inactive),> 100 µM (inactive),> 100 µM (inactive),> 100 µM (inactive),> 100 µM (inactive),–,–
NC(=O)C1(c2ccccc2)Nc2ccccc2S1 (stereo not drawn),> 100 µM (inactive),> 100 µM (inactive),> 100 µM (inactive),> 100 µM (inactive),–,–,> 100 µM (inactive),> 100 µM (inactive),> 100 µM (inactive),> 100 µM (inactive),> 100 µM (inactive),> 100 µM (inactive),–,> 100 µM (inactive),> 100 µM (inactive),> 100 µM (inactive),> 100 µM (inactive),> 100 µM (inactive),–,–
COc1cc(/C=C/C2=C(C#N)C(=O)OC2(C)C)ccc1O,51.8 µM (inactive),> 100 µM (inactive),> 100 µM (inactive),22.4 µM (inactive),> 100 µM (inactive),–,45.4 µM (inactive),35.3 µM (inactive),> 100 µM (inactive),38.9 µM (inactive),> 100 µM (inactive),–,> 100 µM (inactive),> 100 µM (inactive),37.3 µM (inactive),29.1 µM (inactive),> 100 µM (inactive),14.2 µM (inactive),–,–
O=C1C2Cc3ccccc3CN2C(=O)N1CN1CCCCC1 (stereo not drawn),> 100 µM (inactive),> 100 µM (inactive),> 100 µM (inactive),26.6 µM (inactive),> 100 µM (inactive),–,> 100 µM (inactive),55.6 µM (inactive),50.8 µM (inactive),> 100 µM (inactive),78 µM (inactive),> 100 µM (inactive),–,> 100 µM (inactive),> 100 µM (inactive),> 100 µM (inactive),> 100 µM (inactive),97.5 µM (inactive),–,–
N#C/C(=C\c1cccc(O)c1O)C(N)=O,60.8 µM (inactive),40.9 µM (inactive),46.8 µM (inactive),15.5 µM (inactive),93.1 µM (inactive),–,21.5 µM (inactive),50.2 µM (inactive),57.3 µM (inactive),29.4 µM (inactive),35.2 µM (inactive),29.9 µM (inactive),41.3 µM (inactive),35.9 µM (inactive),25.3 µM (inactive),38.6 µM (inactive),54.8 µM (inactive),–,–,–
COc1cc(C2c3cc4c(cc3[C@@H](Nc3ccc(N5CCOCC5)cc3)C3COC(=O)[C@H]23)OCO4)cc(OC)c1O (stereo partly drawn),1.32 µM (inactive),2.86 µM (inactive),1.89 µM (inactive),0.0319 µM (active),4.01 µM (inactive),0.177 µM (active),2 µM (inactive),1.5 µM (inactive),0.238 µM (active),< 0.01 µM (active),0.525 µM (active),–,0.773 µM (active),0.0207 µM (active),0.773 µM (active),1.39 µM (inactive),1.71 µM (inactive),–,–,–
COC(=O)C1(c2ccc(N(C)C)cc2OC)CCCN(C(=O)Oc2ccccc2[N+](=O)[O-])CCc2c1[nH]c1ccccc21 (stereo not drawn),> 100 µM (inactive),> 100 µM (inactive),> 100 µM (inactive),22.9 µM (inactive),> 100 µM (inactive),> 100 µM (inactive),> 100 µM (inactive),> 100 µM (inactive),–,> 100 µM (inactive),> 100 µM (inactive),–,> 100 µM (inactive),16.9 µM (inactive),> 100 µM (inactive),78.3 µM (inactive),–,> 100 µM (inactive),> 100 µM (inactive),> 100 µM (inactive)
CCOC(=O)c1ccc(N[C@@H]2c3cc4c(cc3C(c3cc(OC)c(O)c(OC)c3)[C@H]3C(=O)OCC32)OCO4)cc1 (stereo partly drawn),0.708 µM (active),2.85 µM (inactive),0.568 µM (active),0.0912 µM (active),3.27 µM (inactive),0.105 µM (active),3.15 µM (inactive),0.475 µM (active),–,0.0255 µM (active),0.521 µM (active),0.56 µM (active),1.1 µM (active),0.0142 µM (active),0.284 µM (active),–,1.75 µM (inactive),0.0474 µM (active),–,1.67 µM (inactive)
O=C1c2ccccc2-c2nnc(-c3ccc([N+](=O)[O-])cc3)cc21,> 10 µM (inactive),> 10 µM (inactive),> 10 µM (inactive),> 10 µM (inactive),> 10 µM (inactive),> 10 µM (inactive),> 10 µM (inactive),> 10 µM (inactive),–,> 10 µM (inactive),> 10 µM (inactive),–,> 10 µM (inactive),> 10 µM (inactive),> 10 µM (inactive),> 10 µM (inactive),–,> 10 µM (inactive),> 10 µM (inactive),> 10 µM (inactive)
O=C1Oc2ccc([N+](=O)[O-])cc2N/C1=C\C(=O)c1ccccc1,> 100 µM (inactive),> 100 µM (inactive),> 100 µM (inactive),62.4 µM (inactive),> 100 µM (inactive),> 100 µM (inactive),97.5 µM (inactive),> 100 µM (inactive),–,> 100 µM (inactive),> 100 µM (inactive),–,> 100 µM (inactive),> 100 µM (inactive),> 100 µM (inactive),> 100 µM (inactive),–,74.1 µM (inactive),> 100 µM (inactive),51.8 µM (inactive)
CCCCOP1(=O)C=CC(Cl)=C(C)C1 (stereo not drawn),21.6 µM (inactive),24.7 µM (inactive),19.5 µM (inactive),16.1 µM (inactive),–,–,33 µM (inactive),20.4 µM (inactive),–,29.8 µM (inactive),22.3 µM (inactive),25.1 µM (inactive),23.2 µM (inactive),3.83 µM (inactive),21.4 µM (inactive),3.28 µM (inactive),29.7 µM (inactive),15.3 µM (inactive),–,–
CCCNC(/C=C/[Si](C)(C)C)CO.CCCNCC(O)/C=C/[Si](C)(C)C (stereo not drawn),> 100 µM (inactive),> 100 µM (inactive),> 100 µM (inactive),> 100 µM (inactive),> 100 µM (inactive),–,98.2 µM (inactive),> 100 µM (inactive),–,> 100 µM (inactive),> 100 µM (inactive),> 100 µM (inactive),36.9 µM (inactive),10 µM (inactive),–,> 100 µM (inactive),> 100 µM (inactive),> 100 µM (inactive),–,–
Cc1ccc2c(O)cc(-c3cc(C)sc3C)nc2n1,3.91 µM (inactive),3.5 µM (inactive),3.56 µM (inactive),1.53 µM (inactive),3.36 µM (inactive),2.18 µM (inactive),2.26 µM (inactive),1.67 µM (inactive),–,4.21 µM (inactive),4.88 µM (inactive),–,17.9 µM (inactive),4.14 µM (inactive),2.38 µM (inactive),2.94 µM (inactive),–,0.55 µM (active),0.455 µM (active),10.4 µM (inactive)
COc1cc(C)cc2c1C(=O)C(NC(C)=O)=CC2=O,> 100 µM (inactive),> 100 µM (inactive),> 100 µM (inactive),23.3 µM (inactive),> 100 µM (inactive),67.1 µM (inactive),> 100 µM (inactive),> 100 µM (inactive),–,> 100 µM (inactive),58.7 µM (inactive),–,99.8 µM (inactive),28.2 µM (inactive),> 100 µM (inactive),43.1 µM (inactive),–,55.1 µM (inactive),18.1 µM (inactive),98.4 µM (inactive)
